This is an account of results in patent US9079886B2, “Substituted triazole derivatives as gamma secretase modulators” (Janssen Pharmaceuticals, Inc., priority 2010, dated 2015).

Where two headings read alike, the source gives them in different places.

Data set [1] in a line: Central brain availability: compound levels in plasma and brain. The format is in vivo. As to conditions: mouse, dose 30 mg/kg oral dosing. On the procedure: (§1) A typical protocol for measuring Aβ42 lowering in vivo is shown but it is only one of many variations that could be used to optimize the levels of detectable Aβ. For example, Aβ42 lowering compounds were formulated in 20% of Captisol® (a sulfobutyl ether of β-cyclodextrin) in water or 20% hydroxypropyl β cyclodextrin. The Aβ42 lowering agents were administered as a single oral dose or by any acceptable route of administration to overnight fasted animals. After 4 h, the animals were sacrificed and Aβ42 levels were analysed.
(§2) Blood was collected by decapitation and exsanguinations in EDTA-treated collection tubes. Blood was centrifuged at 1900 g for 10 minutes (min) at 4° C. and the plasma recovered and flash frozen for later analysis. The brain was removed from the cranium and hindbrain. The cerebellum was removed and the left and right hemisphere were separated. The left hemisphere was stored at −18° C. for quantitative analysis of test compound levels. The right hemisphere was rinsed with phosphate-buffered saline (PBS) buffer and immediately frozen on dry ice and stored at −80° C. until homogenization for biochemical assays.
Also the central brain availability of Compounds 3, 5, 10 and A were measured:
The results are shown in Table 5 (dose 30 mg/kg oral dosing; 4 hours): […]

For data set [2], the system named is Aβ42 and Aβtotal in the soluble fraction of brain homogenates. Description: In vivo Aβ42 lowering: brain soluble Aβ42 and Aβtotal by ELISA after a single oral dose. Details: species or system mouse. As to conditions: Mus musculus, po, 4 h, dose 30 mg/kg oral dosing, 4 h after dosing.
From the text: To determine whether acute administration of an Aβ42 lowering agent would reduce Aβ42 levels in vivo, non-transgenic rodents, e.g. mice or rats were used. Animals treated with the Aβ42 lowering agent were examined and compared to those untreated or treated with vehicle and brain levels of soluble Aβ42 and total A13 were quantitated by standard techniques, for example, using ELISA. Treatment periods varied from hours (h) to days and were adjusted based on the results of the Aβ42 lowering once a time course of onset of effect could be established.
as §1, §2
Mouse brains from non-transgenic animals were resuspended in 8 volumes of 0.4% DEA (diethylamine)/50 mM NaCl containing protease inhibitors (Roche-11873580001 or 04693159001) per gram of tissue, e.g. for 0.158 g brain, add 1.264 ml of 0.4% DEA. All samples were homogenized in the FastPrep-24 system (MP Biomedicals) using lysing matrix D (MPBio #6913-100) at 6 m/s for 20 seconds. Homogenates were centrifuged at 221.300×g for 50 min. The resulting high speed supernatants were then transferred to fresh eppendorf tubes. Nine parts of supernatant were neutralized with 1 part 0.5 M Tris-HCl pH 6.8 and used to quantify Aβtotal and Aβ42.
To quantify the amount of Aβtotal and Aβ42 in the soluble fraction of the brain homogenates, Enzyme-Linked-Immunosorbent-Assays were used. Briefly, the standards (a dilution of synthetic Aβ1-40 and Aβ-42, Bachem) were prepared in 1.5 ml Eppendorf tube in Ultraculture, with final concentrations ranging from 10000 to 0.3 pg/ml. The samples and standards were co-incubated with HRPO-labelled N-terminal antibody for Aβ42 detection and with the biotinylated mid-domain antibody 4G8 for Aβtotal detection. 50 μl of conjugate/sample or conjugate/standards mixtures were then added to the antibody-coated plate (the capture antibodies selectively recognize the C-terminal end of Aβ42, antibody JRF/cAB42/26, for Aβ42 detection and the N-terminus of Aβ, antibody JRF/rAβ/2, for Aβtotal detection). The plate was allowed to incubate overnight at 4° C. in order to allow formation of the antibody-amyloid complex. Following this incubation and subsequent wash steps the ELISA for Aβ42 quantification was finished by addition of Quanta Blu fluorogenic peroxidase substrate according to the manufacturer's instructions (Pierce Corp., Rockford, Il). A reading was performed after 10 to 15 min (excitation 320 nm/emission 420 nm).
For Aβtotal detection, a Streptavidine-Peroxidase-Conjugate was added, followed 60 min later by an addional wash step and addition of Quanta Blu fluorogenic peroxidase substrate according to the manufacturer's instructions (Pierce Corp., Rockford, Il). A reading was performed after 10 to 15 min (excitation 320 nm/emission 420 nm). […]

The nature of data set [3]: Liver metabolic stability assay, mouse liver microsomes. The format is in vitro ADME. As to conditions: 1 μM substrate, 1 mg/ml protein, 37° C., 15 minutes. On the procedure:
(§3) Each compound was spiked into a suspension of liver microsomes prepared from the species under investigation, at a final substrate concentration of 1 μM, and a protein concentration of 1 mg/ml, and pre-incubated at 37° C. for 11 minutes. The incubation also contains a NADPH (3-nicotinamide adenine dinucleotide phosphate, reduced) regenerating system. After this preincubation period, NADP (β-nicotinamide adenine dinucleotide phosphate) was added to the active incubations, and the incubations maintained at 37° C. for 15 minutes, during which period metabolism can take place. After 15 minutes, 2 volumes of DMSO (dimethylsulfoxide) were added to each active incubation to inactivate and precipitate proteins. Control incubations were not preincubated at 37° C., but instead were quenched by the addition of DMSO prior to the addition of NADP. Following centrifugation, the supernatant from each incubation was transferred to a separate analysis plate, and analysed for the concentration of the parent compound by LC/MS/MS using a compound-specific LC/MS/MS method and a generic HPLC gradient. The turnover of the parent compound is expressed as the % reduction in concentration in the analyte samples compared to that in the control incubations. Each incubation is performed in triplicate.
In general terms: Liver microsomes are vesicles of endoplasmic reticulum, rich in cytochrome P450 enzymes.

Data set [4] in a line: Liver metabolic stability assay, human liver microsomes. The format is in vitro ADME. The following applies: 1 μM substrate, 1 mg/ml protein, 37° C., 15 minutes. On the procedure:
as §3

The melting point is the temperature, or range, at which the solid turns liquid. Turning to `COc1cc(Nc2nc(-c3ccc(F)cc3)n(C)n2)ccc1-n1cnc(C)c1` [Compound 10], the melting point is 247.1 °C. For the same compound, the concentration at 4 h in data set [1] (brain, read-out: Brain) stood at 4640 ng/g. In data set [1] (plasma, read-out: Plasma), the concentration at 4 h is 2700 ng/mL. For the same compound, the response vs control in vivo at 30 mg/kg in data set [2] (untreated animals (Ctrl) set at 100, read-out: Aβ42 (% vs Ctrl) _Mean) came out at 68%. Moreover, in data set [2] (untreated animals (Ctrl) set at 100, read-out: Aβtotal (% vs Ctrl)_Mean), the response vs control in vivo at 30 mg/kg was 110%. Further, the “turnover of the parent compound (% reduction in concentration vs control incubations), mouse liver microsomes” value in data set [3] was determined as 10%. Also, the “turnover of the parent compound (% reduction in concentration vs control incubations), human liver microsomes” value in data set [4] was found to be 14%.
